Results taken from PMC4278210, “Sargassopenillines A–G, 6,6-Spiroketals from the Alga-Derived Fungi Penicillium thomii and Penicillium lividum” (Marine Drugs, 2014).
pIC50: −log10 of the molar value.

Assays:
[1] = Radical scavenging activity against DPPH
Method: The experiments were performed as previously reported.

[2] = Cytotoxicity towards CD-1 mouse splenocytes; type: cell-based; details: assayed up to 100 µM, read-out: cytotoxicity against splenocytes IC50
Method: The effect of the compounds on the cells viability was evaluated using the MTS test, which is based on the reduction of MTS into its formazan product by alive cells. Cytotoxicity towards CD-I mouse splenocytes was determined according to Freshney. Hemolytic activity towards CD-I mouse erythrocytes was determined as previously described.

[3] = test system: oncogenic nuclear factor AP-1; test: Basal AP-1-dependent transcriptional activity, luciferase reporter in JB6 Cl41 cells; type: cell-based; details: Mus musculus; JB6 Cl41 cells with AP-1 luciferase reporter; after 12 h of treatment; read-out: inhibition of transcriptional activity of AP-1, IC50
Method: The effect of compounds 1–3 and 7 on the basal AP-1-dependent transcriptional activity was also studied using JB6 Cl41 cells stably expressing a luciferase reporter gene controlled by an AP-1-DNA binding sequence.
The effects of the compounds on the basal transcriptional activities of AP-1 were evaluated using the JB6 Cl41 cell line stably expressing a luciferase reporter gene controlled by an AP-1-DNA binding sequence. The experiments were performed as previously reported with slight modifications.

[4] = test system: CD-1 murine peritoneal macrophages; test: Macrophage adhesion test; type: cell-based; details: Mus musculus, 10 µM (non-toxic concentration), 2 h incubation at 37 °C
Method: Mice were sacrificed by cervical dislocation. Peritoneal macrophages were isolated using standard procedures. For this purpose, 3 mL of PBS (pH 7.4) was immediately injected into the peritoneal cavity and the body intensively palpated for 1–2 min. Then, the peritoneal fluid was aspirated with a syringe and transferred to Petri dishes. Petri dishes with the fluid were incubated at 37 °C for 1–2 h to facilitate attachment of peritoneal macrophages to the dish. Then, a cell monolayer was triply flushed with PBS (pH 7.4) to delete attendant lymphocytes, fibroblasts and erythrocytes. Subsequently, macrophages were removed from the surface of the dishes with a scraper and flow of a saline solution, and then placed on an ice bath until use. The working concentration of cells was usually 1–2 × 10^6 cells/mL. The number of adhered cells was estimated according to standard method with some modifications.
Twenty […] of test compound solutions (at non-toxic concentration 10 μM) and […] of macrophage suspension were added to 96-well flat-bottom plates. After incubation for 2 h at 37 °C, cells were fixed with 70% ethanol solution ([…] per well) for 15 min at RT. […] Finally, the SDS/trypan blue solution absorbance was detected spectrophotometrically at 590 nm using a plate reader. The percentage of adhered cells compared to the control level of Trypan blue absorbance was calculated. […]

Compound: C[C@H]1C[C@H](O)C[C@@]2(CC3=C(CO2)C(=O)[C@](C)(O)[C@H](O)C3)O1 [compound 5, sargassopenilline E]
- pIC50 [1]: 4.30
- pIC50 [2]: 4.42

Compound: CC(=O)OC1C2=C(CO[C@@]13O[C@@H](C)C[C@H](O)[C@@H]3OC(C)=O)C(=O)C(C)(OC(C)=O)C(=O)C2 (stereo partly shown) [compound 3, sargassopenilline C]
- pIC50 [3]: 4.82

Compound: CC(=O)OC1C2=C(CO[C@@]13O[C@@H](C)CC[C@@H]3OC(C)=O)C(=O)C(C)=C(O)C2=O (stereo partly shown) [compound 4, sargassopenilline D]
- inhibition at 10 µM [4]: 30 to 40%

Compound: CC(=O)O[C@H]1CC[C@H](C)O[C@@]12OCC1=C(C[C@@H](O)[C@@](C)(O)C1=O)C2O (stereo partly shown) [compound 6, sargassopenilline F]
- inhibition at 10 µM [4]: 30 to 40%

Compound: Cc1c(O)cc2c(c1O)CO[C@@]1(O[C@@H](C)CC[C@@H]1O)[C@@H]2O [compound 1, sargassopenilline A]
- pIC50 [1]: 4.00

Compound: O=C1O[C@H]([C@@H](O)CO)C(O)=C1O [Ascorbic acid, reference compound]
- pIC50 [1]: 4.67
